Literature values as cited in patent publication US20250333406A1, “SULFONYL CYCLIC DERIVATIVES, AND COMPOSITIONS AND METHODS THEREOF” (Lysoway Therapeutics, Inc., priority 2023, published 2025).

Tests used:
ML1-4A = target: T1, ML1-4A (Homo sapiens, UniProt Q9GZU1, L15A/L16A); settings: HEK293 cells stably or transiently expressing ML1-4A; cited from earlier work
T1 construct: host or cells: HEK293 (stably or transiently transfected)

TRPML1 = settings: cited from earlier work
TRPML2 = target: T2, TRPML2 (Homo sapiens, UniProt Q8IZK6); settings: cited from earlier work
T2 sequence (Q8IZK6 1-566): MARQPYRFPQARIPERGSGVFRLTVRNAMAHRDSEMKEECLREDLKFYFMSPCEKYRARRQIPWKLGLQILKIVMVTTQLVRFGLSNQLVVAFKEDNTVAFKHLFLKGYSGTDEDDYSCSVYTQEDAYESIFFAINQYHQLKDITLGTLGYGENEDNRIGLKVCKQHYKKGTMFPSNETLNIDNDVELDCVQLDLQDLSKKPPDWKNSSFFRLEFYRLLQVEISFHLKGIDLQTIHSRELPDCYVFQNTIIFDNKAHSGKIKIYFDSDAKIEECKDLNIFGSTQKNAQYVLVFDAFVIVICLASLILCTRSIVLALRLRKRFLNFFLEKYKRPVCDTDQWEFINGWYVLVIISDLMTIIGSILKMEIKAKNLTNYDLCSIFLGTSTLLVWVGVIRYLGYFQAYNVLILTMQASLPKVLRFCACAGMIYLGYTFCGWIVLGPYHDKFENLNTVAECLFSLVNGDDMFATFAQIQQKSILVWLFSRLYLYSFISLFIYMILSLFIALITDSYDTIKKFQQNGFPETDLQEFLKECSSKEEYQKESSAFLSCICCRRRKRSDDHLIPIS

TRPML3 = target: T3, TRPML3 (Homo sapiens, UniProt Q8TDD5); settings: cited from earlier work
T3 sequence (Q8TDD5 1-553): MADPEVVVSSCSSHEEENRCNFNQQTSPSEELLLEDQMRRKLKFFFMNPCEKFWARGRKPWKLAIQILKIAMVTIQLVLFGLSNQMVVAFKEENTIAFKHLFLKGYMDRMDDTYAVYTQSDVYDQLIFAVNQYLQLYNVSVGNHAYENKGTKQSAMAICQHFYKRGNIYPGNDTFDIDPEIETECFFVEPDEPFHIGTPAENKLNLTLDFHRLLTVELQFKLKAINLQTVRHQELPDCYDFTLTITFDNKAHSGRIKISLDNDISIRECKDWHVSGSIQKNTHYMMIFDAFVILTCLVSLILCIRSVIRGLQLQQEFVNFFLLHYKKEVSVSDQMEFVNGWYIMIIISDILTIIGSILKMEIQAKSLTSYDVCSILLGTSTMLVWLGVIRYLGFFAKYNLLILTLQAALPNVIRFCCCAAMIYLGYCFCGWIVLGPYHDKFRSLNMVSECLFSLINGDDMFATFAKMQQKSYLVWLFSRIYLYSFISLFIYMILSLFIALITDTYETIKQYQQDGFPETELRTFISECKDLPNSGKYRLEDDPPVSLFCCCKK

[1] = target: T4, TRPML-like current (IML-L) (Homo sapiens, UniProt Q9GZU1); settings: wild-type (WT; ML1+/+) human fibroblasts; cited from earlier work
T4 construct: endogenous in cells; host or cells: human fibroblasts (WT ML1+/+; ML4 ML1-/- as negative control)

[2] = test system: TRPML-like current (IML-L); settings: ML4 (ML1−/−) human fibroblasts; cited from earlier work
TRPMLs = settings: cited from earlier work

T4 sequence (Q9GZU1 whole entry): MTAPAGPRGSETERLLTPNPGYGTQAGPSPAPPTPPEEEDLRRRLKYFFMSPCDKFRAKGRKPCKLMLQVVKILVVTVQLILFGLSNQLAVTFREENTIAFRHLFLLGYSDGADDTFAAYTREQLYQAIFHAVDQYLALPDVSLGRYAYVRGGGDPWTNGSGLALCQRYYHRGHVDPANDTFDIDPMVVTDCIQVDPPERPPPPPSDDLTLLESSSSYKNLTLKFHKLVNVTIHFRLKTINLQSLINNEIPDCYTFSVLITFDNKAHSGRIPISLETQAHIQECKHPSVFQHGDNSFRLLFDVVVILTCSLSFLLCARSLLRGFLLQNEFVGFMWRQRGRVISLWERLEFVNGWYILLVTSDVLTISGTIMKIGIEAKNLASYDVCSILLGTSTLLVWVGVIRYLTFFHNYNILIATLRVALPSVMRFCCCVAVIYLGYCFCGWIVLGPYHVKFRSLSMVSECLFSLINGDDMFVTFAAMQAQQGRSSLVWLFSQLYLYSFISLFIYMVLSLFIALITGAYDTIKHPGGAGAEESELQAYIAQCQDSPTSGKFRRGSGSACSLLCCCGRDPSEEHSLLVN
T1 sequence (Q9GZU1 with tags, fused parts or gaps L15A/L16A limits assumed): as the sequence (Q9GZU1 whole entry) above, with L15A, L16A, L577A, L578A counted along it

For `CC1CC(C)(C)N(C(=O)CN2C(=O)c3ccccc3C2=O)c2ccccc21` (centres unmarked) [ML-SA1], which “[Ca2+]cyt increases” value (ML1-4A) is on record?
The value was “significant [Ca2+]cyt increases”.

What about the “activation of whole-endolysosome IML1 compared with PI(3,5)P2” value (TRPML1; ML-SA1 10 μM, PI(3,5)P2 1 μM) of the same compound?
The value was “comparable to the effect of the endogenous TRPML agonist PI(3,5)P2 (1 μM)”.

And the “activation of whole-cell IML1-4A and whole-endolysosome IML1” value (TRPML1)?
Its value is “robustly activated”.

What about the “activation of whole-cell ITRPML2” value (TRPML2) of the same compound?
Its value is “activated”.

What about the “activation of whole-cell ITRPML3” value (TRPML3) of the same compound?
The value was “activated”.

And the “activation of whole-endolysosome IML-L” value [1]?
The value was “activated”.

What about the “activation of whole-endolysosome IML-L” value [2] of the same compound?
Its value is “not”.

What about the “concentration needed to effectively activate TRPMLs” value (TRPMLs) of the same compound?
The value was ~10 µM.
